# Legend:
# Experiment in all cases: Greenhouse trial: effect of adjuvants on activity of glyphosate IPA (fresh weight)
# Type in all cases: in vivo
# [1] = test system: Solanum nigrum L. (SOLNI); conditions: fresh weight relative to untreated plant, 14 days after application; 20.3 g a.e./ha glyphosate IPA; adjuvant 0.25 wt % in spray solution
# Description: (§1) For the purpose of determining the biological activity, greenhouse trials were carried out with glyphosate on Echinochloa crus-galli (L.) Beauv. (ECHCG), Cirsium arvense L. (CIRAR), and Solanum nigrum L. (SOLNI). The plants were cultivated in a greenhouse under 14 hours of irradiation with light at a temperature of 19/14 (±0.5°) C. (day/night) and a relative humidity of 70/80 (±5)% (day/night). The light was supplied via high-pressure sodium lamps, high-pressure mercury lamps, and fluorescent tubes, producing a power of 70 W/m^2 at the leaf level. The plants were grown in 12 cm diameter plastic pots filled with a mixture of sand and humus in a sand:humus ratio of 1:2 by volume.
# (§2) The pots were placed on an under-soil watering mat, which was wetted daily with a medium-strength nutrient solution. Following their appearance at the substrate surface, seedlings were thinned out to five (ECHCG), two (CIRAR), or one (SOLNI) plant per pot for the activity tests.
# (§3) The spray solutions were applied using a laboratory sprayer operated with compressed air and fitted with a Teejet TP8003E nozzle at an application rate of 200 l/ha to the plants at 303 kPa. ECHCG was treated at the two- to three-leaf stage; CIRAR and SOLNI were treated at the four-leaf stage.
# (§4) For the more differentiated examination of the adjuvant effect, the glyphosate active ingredient was underdosed, meaning that the plants are not completely killed. This was done using aqueous solutions of glyphosate-isopropylammonium salt (glyphosate IPA). The amount of glyphosate used was 33.8 g a.e./ha glyphosate IPA (corresponding to 1.0 mmol or 0.17 g a.e./l for a liquid volume of […]) in the case of ECHCG, and at 20.3 g a.e./ha glyphosate IPA (corresponding to […] or 0.10 g a.e./l at a liquid volume of 200 l/ha) for CIRAR and SOLNI. […]
# (§5) The activity of the various adjuvants was assessed 14 days after application, by determining the mass of the plant parts still present (fresh weight; FW), and was reported as a percentage fraction, relative to the untreated plant (Table 3).
# [2] = test system: Cirsium arvense L. (CIRAR); conditions: fresh weight relative to untreated plant, 14 days after application; 20.3 g a.e./ha glyphosate IPA; adjuvant 0.25 wt % in spray solution
# Description: as §1, §2, §3, §4, §5
# [3] = test system: Echinochloa crus-galli (L.) Beauv. (ECHCG); conditions: fresh weight relative to untreated plant, 14 days after application; 33.8 g a.e./ha glyphosate IPA; adjuvant 0.25 wt % in spray solution
# Description: as §1, §2, §3, §4, §5
substance,measurement,setting,value
glyphosate-isopropylammonium salt [Glyphosate IPA],FW in % (SOLNI),[1],84.5%
same,FW in % (CIRAR),[2],95.9%
same,FW in % (ECHCG),[3],74.3%

# — patent US10772324B2, “Aqueous adjuvant-compositions” (CLARIANT FINANCE (BVI) LIMITED, priority 2012, dated 2020)
